Test results as given in PubChem BioAssay AID588663 (The Scripps Research Institute Molecular Screening Center, 2011).
Active and inactive are the calls of the source.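 Rule for the calls: active = phosphorylated p38 level shifted at least 30% either way versus solvent-only control; inactive = shift under 30% either way.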

Test system: SW620 cells, phospho-p38 western blot, 24 h
Assay: altered phosphorylated p38 MAPK amounts – SW620 cells, chemiluminescent western blot, powder samples, counter-screen for KLF5 inhibitor project, late-stage follow-up (AID 588663)
Conditions: at 10 µM; hits give high values

**Q.** How did the inhibition turn out when CN(C(=O)CNC(=O)/C=C/c1cccc(Cl)c1)C1CCS(=O)(=O)CC1 was run?
**A.** Its inhibition is 6.58% (inactive).

**Q.** CN(C(=O)COC(=O)/C=C/c1cccc([N+](=O)[O-])c1)C1CCS(=O)(=O)C1 (stereo not drawn) was tested. Which inhibition did it give?
**A.** The inhibition was 9.32% (inactive).

**Q.** With CN(C(=O)CNC(=O)/C=C/c1cccc(Cl)c1)C1CCS(=O)(=O)C1 (stereo not drawn) as the compound, how does the inhibition read?
**A.** The inhibition was 15.9% (inactive).
